According to ChEMBL document CHEMBL5046264, “Cyclotides Chemosensitize Glioblastoma Cells to Temozolomide” (J Nat Prod, 2022):
Values joined by “and” are separate entries in the source; they are usually repeats but may differ in a detail not shown here. Identical values can stand only once. Active and inactive are the calls of the source. The calls are words filed in the database; no cut-off is given here. Positions of bridges follow the written chain, without caps; N, C: chain ends. Residues, ends and D or L forms follow the SMILES beside them.

Tests used:
SH-SY5Y [1] = experiment: Cytotoxicity against human SH-SY5Y cells assessed as cell viability at 500 uM incubated upto 72 hrs by MTT assay; type: functional; conditions: time hrs <=72, read-out: Activity
U-87 MG [2] = experiment: Induction of morphological changes in human U-87 MG cells assessed as appearance of shrunken cell bodies at 1408 uM measured after 72 hrs by phase contrast microscopy; type: functional, U-87MG ATCC
U-87 MG [3] = experiment: Cytotoxicity against human U-87 MG cells using best fit nonlinear regression analysis; type: functional, cell-based, U-87MG ATCC
U-87 MG [4] = experiment: Cytotoxicity against human U-87 MG cells assessed as cell viability at 100 uM incubated upto 72 hrs by MTT assay; type: functional, U-87MG ATCC; conditions: time hrs <=72, read-out: Activity
U-87 MG [5] = experiment: Induction of morphological changes in human U-87 MG cells assessed as appearance of undergoing apoptosis at 1408 uM measured after 72 hrs by phase contrast microscopy; type: functional, U-87MG ATCC
SH-SY5Y [6] = experiment: Cytotoxicity against human SH-SY5Y cells assessed as cell viability at 2000 uM incubated upto 72 hrs by MTT assay; type: functional; conditions: time hrs <=72, read-out: Activity
U-87 MG [7] = experiment: Cytotoxicity against human U-87 MG cells assessed as cell viability at 2000 uM incubated upto 72 hrs by MTT assay; type: functional, U-87MG ATCC; conditions: time hrs <=72, read-out: Activity
SH-SY5Y [8] = experiment: Cytotoxicity against human SH-SY5Y cells assessed as cell viability using raw interpretation method; type: functional, cell-based
U-87 MG [9] = experiment: Cytotoxicity against human U-87 MG cells assessed as cell viability at 10000 uM incubated upto 72 hrs by MTT assay; type: functional, U-87MG ATCC; conditions: time hrs <=72, read-out: Activity
SH-SY5Y [10] = experiment: Cytotoxicity against human SH-SY5Y cells using best fit nonlinear regression analysis; type: functional, cell-based
U-87 MG [11] = experiment: Induction of morphological changes in human U-87 MG cells assessed as membrane blebbing at 1408 uM measured after 72 hrs by phase contrast microscopy; type: functional, U-87MG ATCC
SH-SY5Y [12] = experiment: Cytotoxicity against human SH-SY5Y cells assessed as cell viability at 100 uM incubated upto 72 hrs by MTT assay; type: functional; conditions: time hrs <=72, read-out: Activity
U-87 MG [13] = experiment: Cytotoxicity against human U-87 MG cells assessed as cell viability using raw interpretation method; type: functional, cell-based, U-87MG ATCC
U-87 MG [14] = experiment: Cytotoxicity against human U-87 MG cells assessed as cell death at 352 uM incubated upto 72 hrs by MTT assay; type: functional, U-87MG ATCC; conditions: time hrs <=72
U-87 MG [15] = experiment: Cytotoxicity against human U-87 MG cells by sulforhodamine B assay; type: functional, cell-based, U-87MG ATCC
SH-SY5Y [16] = experiment: Cytotoxicity against human SH-SY5Y cells assessed as cell viability at 10 uM upto 72 hrs by MTT assay; type: functional; conditions: time hrs <=72, read-out: Activity
U-87 MG [17] = experiment: Cytotoxicity against human U-87 MG cells assessed as cell viability at 5 uM upto 72 hrs by MTT assay; type: functional, U-87MG ATCC; conditions: time hrs <=72, read-out: Activity
U-251 = experiment: Cytotoxicity against human U-251 cells by sulforhodamine B assay; type: functional, cell-based
SH-SY5Y [18] = experiment: Cytotoxicity against human SH-SY5Y cells assessed as cell viability at 5 uM upto 72 hrs by MTT assay; type: functional; conditions: time hrs <=72, read-out: Activity
U-87 MG [19] = experiment: Cytotoxicity against human U-87 MG cells assessed as cell viability at 10 uM upto 72 hrs by MTT assay; type: functional, U-87MG ATCC; conditions: time hrs <=72, read-out: Activity
U-87 MG [20] = experiment: Induction of morphological changes in human U-87 MG cells assessed as swollen nuclei at 4.4 uM cotreated with 352 uM of TMZ measured after 72 hrs by phase contrast microscopy; type: functional, cell-based; conditions: U-87MG ATCC
U-87 MG [21] = experiment: Cytotoxicity against human U-87 MG cells assessed as TMZ-induced cell death at 4.4 uM cotreated with 352 uM of TMZ measured after 72 hrs by phase contrast microscopy; type: functional, cell-based; conditions: U-87MG ATCC
U-87 MG [22] = experiment: Induction of morphological changes in human U-87 MG cells assessed as cell death at 4.4 uM cotreated with 352 uM of TMZ measured after 72 hrs by phase contrast microscopy; type: functional, cell-based; conditions: U-87MG ATCC
U-87 MG [23] = experiment: Induction of morphological changes in human U-87 MG cells assessed as membrane blebbing at 4.4 uM measured after 72 hrs by phase contrast microscopy; type: functional, cell-based; conditions: U-87MG ATCC
U-87 MG [24] = experiment: Induction of morphological changes in human U-87 MG cells assessed as appearance of shrunken cell bodies at 4.4 uM measured after 72 hrs by phase contrast microscopy; type: functional, cell-based; conditions: U-87MG ATCC
SH-SY5Y [25] = experiment: Cytotoxicity against human SH-SY5Y cells assessed as TMZ-induced cell death at 2.15 uM cotreated with 54.05 uM of TMZ incubated upto 72 hrs by MTT assay; type: functional; conditions: time hrs <=72
SH-SY5Y [26] = experiment: Cytotoxicity against human SH-SY5Y cells assessed as TMZ-induced cell death at 0.27 to 2.15 uM cotreated with 216.2 uM of TMZ incubated upto 72 hrs by MTT assay; type: functional; conditions: dose 0.27-2.15 µM, time hrs <=72
U-87 MG [27] = experiment: Cytotoxicity against human U-87 MG cells assessed as TMZ-induced cell death at 4.5 uM cotreated with 352 to 1408 uM of TMZ incubated upto 72 hrs by MTT assay; type: functional, cell-based; conditions: U-87MG ATCC, time hrs <=72
SH-SY5Y [28] = experiment: Cytotoxicity against human SH-SY5Y cells assessed as TMZ-induced cell death at 2.15 uM cotreated with 108.1 uM of TMZ incubated upto 72 hrs by MTT assay; type: functional; conditions: time hrs <=72
U-87 MG [29] = experiment: Induction of morphological changes in human U-87 MG cells assessed as membrane blebbing at 4.4 uM cotreated with 352 uM of TMZ measured after 72 hrs by phase contrast microscopy; type: functional, cell-based; conditions: U-87MG ATCC
U-87 MG [30] = experiment: Effect on cell morphology in human U-87 MG cells at 4.4 uM cotreated with 352 uM of TMZ measured after 72 hrs by phase contrast microscopy; type: functional, cell-based; conditions: U-87MG ATCC

## Cn1nnc2c(C(N)=O)ncn2c1=O [TEMOZOLOMIDE]
SH-SY5Y [1]
  viability at 500 µM: 41.5%
U-87 MG [2]
  Activity: 40%
U-87 MG [3]
  IC50: 2900 µM
U-87 MG [4]
  viability at 100 µM: 85.2%
U-87 MG [5]
  Activity: 40%
SH-SY5Y [6]
  viability at 2000 µM: 15.5%
U-87 MG [7]
  viability at 2000 µM: 57.3%
SH-SY5Y [8]
  IC50: 513 µM
U-87 MG [9]
  viability at 10000 µM: 32.4%
SH-SY5Y [10]
  IC50: 393 µM
U-87 MG [11]
  Activity: 40%
SH-SY5Y [12]
  viability at 100 µM: 96.6%
U-87 MG [13]
  IC50: 3190 µM
U-87 MG [14]
  Activity: 10%

## CC(C)C[C@@H]1NC(=O)CNC(=O)[C@H](CC(N)=O)NC(=O)[C@H](CCCNC(=N)N)NC(=O)[C@H]([C@@H](C)O)NC(=O)[C@@H]2CSSC[C@@H]3NC(=O)[C@H]([C@@H](C)O)NC(=O)CNC(=O)CNC(=O)[C@H](C(C)C)NC(=O)[C@@H]4CSSC[C@H](NC(=O)[C@H]([C@@H](C)O)NC(=O)[C@H](CSSC[C@H](NC(=O)[C@H](C(C)C)NC(=O)[C@@H]5CCCN5C1=O)C(=O)NCC(=O)N[C@@H](CCC(=O)O)C(=O)N[C@@H]([C@@H](C)O)C(=O)N4)NC(=O)CNC(=O)[C@@H]1CCCN1C(=O)[C@H]([C@@H](C)O)NC(=O)[C@H](CC(N)=O)NC3=O)C(=O)N[C@@H](CO)C(=O)N[C@@H](Cc1c[nH]c3ccccc13)C(=O)N1CCC[C@H]1C(=O)N[C@@H](C(C)C)C(=O)N2
U-87 MG [15]
  IC50: 3210 nM
SH-SY5Y [16]
  viability at 10 µM: 20%
U-87 MG [3]
  IC50: 7.93 µM
U-87 MG [17]
  viability at 5 µM: 60%
SH-SY5Y [8]
  IC50: 6.05 µM
U-251
  IC50: 10.9 µM
SH-SY5Y [10]
  IC50: 5.56 µM
U-87 MG [13]
  IC50: 7.97 µM
SH-SY5Y [18]
  viability at 5 µM: 60%
U-87 MG [19]
  viability at 10 µM: 40%

## CC[C@H](C)[C@@H]1NC(=O)[C@H](C)NC(=O)[C@H](CO)NC(=O)[C@H](CO)NC(=O)[C@H]([C@@H](C)CC)NC(=O)[C@@H]2CSSC[C@@H]3NC(=O)[C@H](C(C)C)NC(=O)[C@H](CCCCN)NC(=O)[C@H](CO)NC(=O)[C@H](CCCCN)NC(=O)[C@@H]4CSSC[C@H](NC(=O)[C@H](CO)NC(=O)[C@H](CCC(=O)O)NC(=O)CNC(=O)[C@H](CSSC[C@H](NC(=O)CNC1=O)C(=O)N[C@@H](CO)C(=O)N4)NC(=O)[C@@H]1CCCN1C(=O)[C@H]([C@@H](C)CC)NC(=O)CNC(=O)[C@H](CC(N)=O)NC(=O)[C@H](CCCNC(=N)N)NC(=O)[C@H](Cc1ccc(O)cc1)NC3=O)C(=O)N[C@@H](C(C)C)C(=O)N[C@@H](Cc1c[nH]c3ccccc13)C(=O)N[C@@H]([C@@H](C)CC)C(=O)N1CCC[C@H]1C(=O)N2 (cyclo(AIGCSCKSKVCYRNGIPCGESCVWIPCISS); disulfide 4-18, 6-22, 11-27)
U-87 MG [15]
  IC50: 450 nM
U-87 MG [20]
  Activity: Active
U-87 MG [21]
  Activity: inactive
U-87 MG [22]
  Activity: Active
U-87 MG [23]
  Activity: Active
U-87 MG [24]
  Activity: Active
SH-SY5Y [25]
  Activity: <20%
SH-SY5Y [26]
  Activity: 40%
U-87 MG [3]
  IC50: 4.5 µM
U-87 MG [27]
  Activity: Active
SH-SY5Y [28]
  Activity: 30%
U-87 MG [29]
  Activity: Active
U-87 MG [17]
  viability at 5 µM: 54.7%
SH-SY5Y [8]
  IC50: 3.07 µM
U-87 MG [30]
  Activity: Active
U-251
  IC50: 17.1 µg/mL and 790 nM
SH-SY5Y [10]
  IC50: 2.15 µM
U-87 MG [13]
  IC50: 5.66 µM
SH-SY5Y [18]
  viability at 5 µM: 11.5%
